In assay [1] the target is T1, Prostaglandin G/H synthase 1 (Rattus norvegicus, UniProt Q63921).
T1 sequence (Q63921 whole entry): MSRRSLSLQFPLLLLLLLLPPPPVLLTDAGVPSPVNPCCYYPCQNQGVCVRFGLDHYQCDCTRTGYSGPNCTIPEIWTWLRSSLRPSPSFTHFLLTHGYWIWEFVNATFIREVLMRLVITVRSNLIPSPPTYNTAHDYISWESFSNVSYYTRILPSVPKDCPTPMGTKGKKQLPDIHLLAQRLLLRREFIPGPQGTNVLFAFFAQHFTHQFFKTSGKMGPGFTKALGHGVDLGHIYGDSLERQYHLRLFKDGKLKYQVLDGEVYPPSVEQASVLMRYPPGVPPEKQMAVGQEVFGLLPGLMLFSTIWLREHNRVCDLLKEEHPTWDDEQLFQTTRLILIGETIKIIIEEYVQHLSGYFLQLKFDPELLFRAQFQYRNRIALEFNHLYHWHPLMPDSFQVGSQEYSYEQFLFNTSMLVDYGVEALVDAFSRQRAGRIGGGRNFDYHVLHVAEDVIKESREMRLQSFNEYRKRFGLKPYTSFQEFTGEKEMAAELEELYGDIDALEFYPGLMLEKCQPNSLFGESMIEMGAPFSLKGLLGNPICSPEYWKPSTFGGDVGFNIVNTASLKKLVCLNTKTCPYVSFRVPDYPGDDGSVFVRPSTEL
The format is functional.

Assay [2] deals with T2, Alpha-1A adrenergic receptor (Homo sapiens, UniProt P35348).
T2 sequence (P35348 whole entry): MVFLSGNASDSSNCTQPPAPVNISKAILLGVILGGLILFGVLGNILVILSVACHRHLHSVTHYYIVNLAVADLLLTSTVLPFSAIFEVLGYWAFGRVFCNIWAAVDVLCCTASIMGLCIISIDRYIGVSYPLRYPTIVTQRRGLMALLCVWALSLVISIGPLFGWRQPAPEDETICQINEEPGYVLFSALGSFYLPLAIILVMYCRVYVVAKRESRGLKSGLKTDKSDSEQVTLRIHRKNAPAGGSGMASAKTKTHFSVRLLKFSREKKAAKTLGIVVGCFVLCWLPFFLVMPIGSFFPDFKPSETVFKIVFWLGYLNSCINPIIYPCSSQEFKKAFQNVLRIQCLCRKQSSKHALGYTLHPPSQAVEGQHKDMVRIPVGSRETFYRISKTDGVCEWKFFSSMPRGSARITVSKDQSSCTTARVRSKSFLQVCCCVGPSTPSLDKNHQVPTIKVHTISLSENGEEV
The format is functional, cell-based.

For a further assay, the target named is Cannabinoid receptor 1 (Homo sapiens, UniProt P21554). The format is functional, cell-based.
Chain of Cannabinoid receptor 1 (P21554 whole entry): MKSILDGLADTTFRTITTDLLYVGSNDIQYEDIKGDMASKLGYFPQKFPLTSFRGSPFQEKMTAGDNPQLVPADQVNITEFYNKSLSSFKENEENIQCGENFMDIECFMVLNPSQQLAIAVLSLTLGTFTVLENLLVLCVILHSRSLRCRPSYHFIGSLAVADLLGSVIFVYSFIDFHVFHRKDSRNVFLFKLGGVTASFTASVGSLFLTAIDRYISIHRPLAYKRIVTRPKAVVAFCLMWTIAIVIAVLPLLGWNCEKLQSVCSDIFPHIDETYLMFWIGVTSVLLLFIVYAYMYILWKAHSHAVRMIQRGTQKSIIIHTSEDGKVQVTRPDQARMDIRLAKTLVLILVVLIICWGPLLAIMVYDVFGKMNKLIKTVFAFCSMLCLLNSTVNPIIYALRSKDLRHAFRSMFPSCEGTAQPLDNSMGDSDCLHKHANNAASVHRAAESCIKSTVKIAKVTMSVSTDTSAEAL
In a further assay the target is Histamine H2 receptor (Homo sapiens, UniProt P25021). The format is functional, cell-based.
Chain of Histamine H2 receptor (P25021 whole entry): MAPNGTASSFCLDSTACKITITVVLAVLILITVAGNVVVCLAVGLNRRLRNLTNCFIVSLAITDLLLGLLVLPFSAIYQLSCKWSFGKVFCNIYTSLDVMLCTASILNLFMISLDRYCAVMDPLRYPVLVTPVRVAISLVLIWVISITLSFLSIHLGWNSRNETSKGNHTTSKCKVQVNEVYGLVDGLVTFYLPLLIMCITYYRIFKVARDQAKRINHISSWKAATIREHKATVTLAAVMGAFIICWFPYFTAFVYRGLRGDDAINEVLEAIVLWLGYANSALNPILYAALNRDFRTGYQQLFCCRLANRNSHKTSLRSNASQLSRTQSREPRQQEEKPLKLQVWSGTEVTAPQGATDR
For the next assay, the target named is Adenosine receptor A2a (Homo sapiens, UniProt P29274).
Chain of Adenosine receptor A2a (P29274 whole entry): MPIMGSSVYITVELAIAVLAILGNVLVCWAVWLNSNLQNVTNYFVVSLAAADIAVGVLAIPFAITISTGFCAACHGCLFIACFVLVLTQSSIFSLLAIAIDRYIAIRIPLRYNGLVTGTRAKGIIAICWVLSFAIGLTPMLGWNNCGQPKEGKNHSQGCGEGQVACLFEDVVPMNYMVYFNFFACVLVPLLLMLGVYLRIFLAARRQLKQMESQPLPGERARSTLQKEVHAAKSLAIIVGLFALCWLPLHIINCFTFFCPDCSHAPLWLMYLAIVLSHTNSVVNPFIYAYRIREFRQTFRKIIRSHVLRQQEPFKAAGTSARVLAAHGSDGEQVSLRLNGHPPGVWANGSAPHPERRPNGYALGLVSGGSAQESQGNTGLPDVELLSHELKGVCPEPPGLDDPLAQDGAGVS
The target in assay [3] is Sodium-dependent dopamine transporter (Homo sapiens, UniProt Q01959).
Chain of Sodium-dependent dopamine transporter (Q01959 whole entry): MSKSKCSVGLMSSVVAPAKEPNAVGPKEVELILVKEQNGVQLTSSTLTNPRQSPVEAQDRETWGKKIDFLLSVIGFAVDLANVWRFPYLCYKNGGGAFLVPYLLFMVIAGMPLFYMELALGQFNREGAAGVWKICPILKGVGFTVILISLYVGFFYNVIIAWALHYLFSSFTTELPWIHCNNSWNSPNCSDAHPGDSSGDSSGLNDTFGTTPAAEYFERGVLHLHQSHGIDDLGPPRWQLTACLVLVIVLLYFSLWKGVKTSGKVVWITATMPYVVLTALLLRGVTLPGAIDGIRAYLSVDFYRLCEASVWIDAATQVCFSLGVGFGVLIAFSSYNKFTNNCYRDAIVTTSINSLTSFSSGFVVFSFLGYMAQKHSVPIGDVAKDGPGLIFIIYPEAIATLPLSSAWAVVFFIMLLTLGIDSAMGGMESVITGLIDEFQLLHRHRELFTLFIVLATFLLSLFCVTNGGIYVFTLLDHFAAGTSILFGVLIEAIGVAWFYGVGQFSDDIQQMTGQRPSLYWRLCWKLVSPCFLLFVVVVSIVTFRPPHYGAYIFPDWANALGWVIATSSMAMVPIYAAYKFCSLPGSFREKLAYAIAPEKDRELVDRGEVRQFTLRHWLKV
The target of assay [4] is T3, 5-hydroxytryptamine receptor 1A (Homo sapiens, UniProt P08908).
T3 sequence (P08908 whole entry): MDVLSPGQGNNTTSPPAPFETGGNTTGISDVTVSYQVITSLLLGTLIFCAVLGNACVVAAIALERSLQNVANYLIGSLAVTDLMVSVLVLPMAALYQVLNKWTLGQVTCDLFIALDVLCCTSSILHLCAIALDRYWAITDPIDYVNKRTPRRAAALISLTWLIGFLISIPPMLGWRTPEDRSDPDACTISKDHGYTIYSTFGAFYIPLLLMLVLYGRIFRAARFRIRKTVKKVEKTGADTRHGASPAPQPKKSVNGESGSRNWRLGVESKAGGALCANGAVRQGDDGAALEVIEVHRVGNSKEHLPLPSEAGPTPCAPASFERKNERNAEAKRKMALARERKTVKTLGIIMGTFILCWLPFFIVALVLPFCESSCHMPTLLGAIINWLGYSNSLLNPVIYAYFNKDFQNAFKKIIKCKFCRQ
The format is functional, cell-based.

For assay [5], the target named is 5-hydroxytryptamine receptor 2A (Homo sapiens, UniProt P28223). The format is functional, cell-based.
Chain of 5-hydroxytryptamine receptor 2A (P28223 whole entry): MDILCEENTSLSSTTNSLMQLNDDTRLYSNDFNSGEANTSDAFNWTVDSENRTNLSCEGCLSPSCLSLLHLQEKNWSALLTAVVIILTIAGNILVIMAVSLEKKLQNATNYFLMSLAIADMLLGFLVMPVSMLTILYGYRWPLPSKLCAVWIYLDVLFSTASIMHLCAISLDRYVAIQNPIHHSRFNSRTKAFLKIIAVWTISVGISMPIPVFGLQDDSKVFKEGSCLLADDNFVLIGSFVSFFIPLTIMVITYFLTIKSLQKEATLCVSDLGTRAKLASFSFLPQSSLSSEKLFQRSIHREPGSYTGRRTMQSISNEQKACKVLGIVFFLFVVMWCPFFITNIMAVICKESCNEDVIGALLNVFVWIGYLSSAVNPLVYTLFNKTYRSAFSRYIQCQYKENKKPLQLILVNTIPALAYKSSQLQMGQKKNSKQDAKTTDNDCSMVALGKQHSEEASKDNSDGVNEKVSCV
The target of assay [6] is T4, 5-hydroxytryptamine receptor 2C (Homo sapiens, UniProt P28335).
T4 sequence (P28335 whole entry): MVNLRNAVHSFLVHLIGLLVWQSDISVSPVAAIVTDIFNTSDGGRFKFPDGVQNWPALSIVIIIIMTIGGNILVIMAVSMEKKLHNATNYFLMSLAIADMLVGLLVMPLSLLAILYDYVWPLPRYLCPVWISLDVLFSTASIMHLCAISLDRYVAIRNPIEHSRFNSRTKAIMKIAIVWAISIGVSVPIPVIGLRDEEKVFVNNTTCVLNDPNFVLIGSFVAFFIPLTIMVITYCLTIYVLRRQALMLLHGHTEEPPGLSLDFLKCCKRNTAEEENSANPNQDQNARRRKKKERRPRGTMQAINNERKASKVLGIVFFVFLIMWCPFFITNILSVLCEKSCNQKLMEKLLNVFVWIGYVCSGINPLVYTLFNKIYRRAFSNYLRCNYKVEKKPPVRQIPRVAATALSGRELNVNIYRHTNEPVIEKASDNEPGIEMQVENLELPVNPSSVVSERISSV

Assay [7] addresses Delta-type opioid receptor (Homo sapiens, UniProt P41143).
In assay [8] the target is 5-hydroxytryptamine receptor 2B (Homo sapiens, UniProt P41595). The format is functional, cell-based.
Chain of 5-hydroxytryptamine receptor 2B (P41595 whole entry): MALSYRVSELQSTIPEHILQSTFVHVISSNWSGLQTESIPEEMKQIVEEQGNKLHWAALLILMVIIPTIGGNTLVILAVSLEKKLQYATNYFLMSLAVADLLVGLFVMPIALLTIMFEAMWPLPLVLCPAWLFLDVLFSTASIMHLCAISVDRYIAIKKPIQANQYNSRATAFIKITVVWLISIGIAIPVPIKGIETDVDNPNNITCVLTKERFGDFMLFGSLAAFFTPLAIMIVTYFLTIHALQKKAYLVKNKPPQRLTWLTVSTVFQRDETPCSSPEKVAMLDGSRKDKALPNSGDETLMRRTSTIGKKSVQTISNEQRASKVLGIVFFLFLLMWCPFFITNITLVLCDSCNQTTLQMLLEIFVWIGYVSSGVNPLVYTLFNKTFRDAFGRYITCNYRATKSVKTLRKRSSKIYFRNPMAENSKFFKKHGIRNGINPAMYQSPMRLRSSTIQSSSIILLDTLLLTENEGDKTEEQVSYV
Assay [9] addresses Neuronal acetylcholine receptor subunit alpha-4 (Homo sapiens, UniProt P43681).
Another assay addresses D(3) dopamine receptor (Homo sapiens, UniProt P35462).
Assay [10] has as its target Gamma-aminobutyric acid receptor subunit alpha-1 (Rattus norvegicus, UniProt P62813).
For another assay, the target named is T5, Adenosine receptor A1 (Homo sapiens, UniProt P30542).
T5 sequence (P30542 whole entry): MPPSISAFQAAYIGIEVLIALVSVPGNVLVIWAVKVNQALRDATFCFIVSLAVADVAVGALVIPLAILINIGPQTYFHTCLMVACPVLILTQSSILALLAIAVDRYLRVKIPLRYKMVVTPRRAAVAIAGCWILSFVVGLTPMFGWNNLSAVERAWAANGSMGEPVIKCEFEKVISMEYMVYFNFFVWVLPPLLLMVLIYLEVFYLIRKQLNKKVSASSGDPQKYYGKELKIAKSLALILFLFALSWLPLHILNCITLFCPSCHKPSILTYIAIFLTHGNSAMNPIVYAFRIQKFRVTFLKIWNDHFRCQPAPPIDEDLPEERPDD

Consider 9 molecules from ChEMBL document CHEMBL5291721, “A preclinical secondary pharmacology resource illuminates target-adverse drug reaction associations of marketed drugs” (Nat Commun, 2023).

Structures are written as SMILES. A value given as a limit tells only on which side of the number the result lay.
Also: assay procedure not described here.

Chain of Gamma-aminobutyric acid receptor subunit alpha-1 (P62813 whole entry): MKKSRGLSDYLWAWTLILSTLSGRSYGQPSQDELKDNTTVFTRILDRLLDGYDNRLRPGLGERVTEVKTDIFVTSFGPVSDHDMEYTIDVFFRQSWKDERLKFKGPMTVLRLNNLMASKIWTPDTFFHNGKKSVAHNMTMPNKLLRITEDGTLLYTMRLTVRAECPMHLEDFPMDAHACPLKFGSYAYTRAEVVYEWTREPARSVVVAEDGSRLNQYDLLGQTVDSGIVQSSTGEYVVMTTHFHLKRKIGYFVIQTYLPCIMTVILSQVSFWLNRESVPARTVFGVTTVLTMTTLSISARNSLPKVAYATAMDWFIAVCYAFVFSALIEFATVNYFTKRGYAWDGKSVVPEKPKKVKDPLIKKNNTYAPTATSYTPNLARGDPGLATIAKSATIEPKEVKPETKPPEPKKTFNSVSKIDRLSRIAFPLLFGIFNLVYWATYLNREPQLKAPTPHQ
Chain of D(3) dopamine receptor (P35462 whole entry): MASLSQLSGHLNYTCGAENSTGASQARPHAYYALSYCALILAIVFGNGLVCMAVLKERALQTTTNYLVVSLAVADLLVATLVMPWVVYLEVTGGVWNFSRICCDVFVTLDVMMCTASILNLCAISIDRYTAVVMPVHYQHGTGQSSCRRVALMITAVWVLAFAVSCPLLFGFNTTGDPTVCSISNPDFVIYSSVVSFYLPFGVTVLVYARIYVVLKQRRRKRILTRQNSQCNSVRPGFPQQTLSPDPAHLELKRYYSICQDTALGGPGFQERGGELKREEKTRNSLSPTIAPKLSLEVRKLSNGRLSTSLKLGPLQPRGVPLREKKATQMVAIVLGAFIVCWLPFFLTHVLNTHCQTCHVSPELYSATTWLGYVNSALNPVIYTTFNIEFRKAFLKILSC
Chain of Neuronal acetylcholine receptor subunit alpha-4 (P43681 whole entry): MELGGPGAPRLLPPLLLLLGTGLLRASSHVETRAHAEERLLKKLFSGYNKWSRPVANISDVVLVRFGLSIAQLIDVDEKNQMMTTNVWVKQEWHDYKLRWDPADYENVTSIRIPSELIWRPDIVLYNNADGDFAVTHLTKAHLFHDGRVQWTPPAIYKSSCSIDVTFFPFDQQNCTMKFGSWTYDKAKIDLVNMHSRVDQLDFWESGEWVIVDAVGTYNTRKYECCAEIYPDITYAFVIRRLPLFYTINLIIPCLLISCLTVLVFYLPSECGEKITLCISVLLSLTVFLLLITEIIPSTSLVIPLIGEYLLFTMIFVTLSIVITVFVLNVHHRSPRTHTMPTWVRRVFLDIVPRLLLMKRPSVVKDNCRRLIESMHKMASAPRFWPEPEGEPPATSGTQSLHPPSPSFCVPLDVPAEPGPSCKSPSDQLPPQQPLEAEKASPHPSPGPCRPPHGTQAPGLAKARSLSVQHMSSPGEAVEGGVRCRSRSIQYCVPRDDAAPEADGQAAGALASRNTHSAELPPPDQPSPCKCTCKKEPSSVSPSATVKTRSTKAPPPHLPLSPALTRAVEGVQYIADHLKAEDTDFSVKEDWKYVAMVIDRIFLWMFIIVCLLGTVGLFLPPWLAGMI
Chain of Delta-type opioid receptor (P41143 whole entry): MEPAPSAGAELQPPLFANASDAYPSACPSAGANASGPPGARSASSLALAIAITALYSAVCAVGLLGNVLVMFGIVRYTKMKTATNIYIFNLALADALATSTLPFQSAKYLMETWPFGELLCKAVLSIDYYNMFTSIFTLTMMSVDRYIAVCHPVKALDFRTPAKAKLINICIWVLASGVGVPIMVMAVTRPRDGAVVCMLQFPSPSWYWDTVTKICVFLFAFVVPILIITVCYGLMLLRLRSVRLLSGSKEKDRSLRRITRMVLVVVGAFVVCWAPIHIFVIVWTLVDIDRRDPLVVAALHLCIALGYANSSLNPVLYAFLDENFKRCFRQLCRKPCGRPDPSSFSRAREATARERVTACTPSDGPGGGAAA

As a reminder, the AC50 is the midpoint of the concentration-response curve, whichever way the signal moves. For `Oc1cc(Cl)ccc1Oc1ccc(Cl)cc1Cl` [TRICLOSAN], the half-maximal activity concentration (AC50) is more than 30 µM in [1]; more than 30 µM in assay [2]; more than 30 µM at Cannabinoid receptor 1; more than 30 µM at Histamine H2 receptor; more than 30 µM on Adenosine receptor A2a; 24 µM in assay [3]. Moreover, the AC50 in assay [4], in assay [5], in assay [6], in assay [7], in assay [8] and in assay [9] was more than 30 µM in each case. Also, the AC50 at D(3) dopamine receptor is more than 30 µM; in assay [10] it was more than 10 µM; at Adenosine receptor A1, more than 30 µM.
As for `CC(C)(Oc1ccc(Cl)cc1)C(=O)OCCOC(=O)c1cccnc1` [ETOFIBRATE], the AC50 (in assay [1]; in [2]; on Cannabinoid receptor 1; on Histamine H2 receptor; at Adenosine receptor A2a; in assay [3]) was more than 30 µM in each case. Also, the AC50 (in assay [5]; in assay [6]; in assay [7]; in [8]; in assay [9]; at D(3) dopamine receptor) was more than 30 µM each time. The AC50 (in [10]; on Adenosine receptor A1) was more than 30 µM in each case.
`COc1ccc(C(=O)c2ccccc2)c(O)c1` [OXYBENZONE]: the AC50 (in [2]; at Cannabinoid receptor 1; on Histamine H2 receptor; in assay [4]; in assay [5]; in assay [6]) was more than 30 µM each time. For the same molecule, the AC50 (in assay [7]; in assay [8]; on D(3) dopamine receptor; in assay [10]) was more than 30 µM each time.
On to `CN(C)CCC(O)(c1ccccc1)c1ccccc1Cl` (stereo not drawn) [CHLOPHEDIANOL], for which the AC50 was more than 10 µM in assay [1]; more than 30 µM at Cannabinoid receptor 1; more than 10 µM on Histamine H2 receptor; more than 10 µM on Adenosine receptor A2a; more than 10 µM in assay [3]; more than 10 µM in [4]. Also, the concentration at half-maximal activity (AC50) in assay [5] was 4.4 µM; in [6], 8.3 µM; in assay [7], more than 30 µM; in [8] it was more than 10 µM; in assay [9], more than 10 µM; on D(3) dopamine receptor it was more than 30 µM. In addition, the AC50 (in [10]; on Adenosine receptor A1) was more than 10 µM in each case.
Take `COc1ccc(-c2cc(=S)ss2)cc1` [ANETHOLTRITHION]: the AC50 is more than 30 µM in assay [1]; more than 30 µM in assay [2]; more than 30 µM at Cannabinoid receptor 1; more than 30 µM on Histamine H2 receptor; 11 µM at Adenosine receptor A2a; 10 µM in [3]. For the same molecule, the AC50 is more than 30 µM in assay [4]; more than 30 µM in [5]; more than 30 µM in assay [6]; more than 30 µM in assay [7]; more than 30 µM in assay [8]; 9.2 µM in [9]. The AC50 on D(3) dopamine receptor is more than 30 µM; in assay [10], more than 30 µM; on Adenosine receptor A1, 5.9 µM.
With `CN(C)[C@@H]1C(O)=C(C(=O)NCN2CCCC2)C(=O)[C@@]2(O)C(O)=C3C(=O)c4c(O)cccc4[C@@](C)(O)[C@H]3C[C@@H]12` [ROLITETRACYCLINE], the AC50 in assay [1] was 0.653 µM; in assay [2], more than 30 µM; at Cannabinoid receptor 1, more than 30 µM; on Histamine H2 receptor it was more than 10 µM; at Adenosine receptor A2a, more than 10 µM; in assay [3], more than 10 µM. In addition, the AC50 in assay [4] is more than 30 µM; in assay [5], more than 30 µM; in assay [6] it was more than 30 µM; in [7] it was more than 30 µM; in [8] it was more than 10 µM; in assay [9], more than 10 µM. Moreover, the concentration at half-maximal activity (AC50) is more than 30 µM on D(3) dopamine receptor, more than 10 µM in assay [10] and more than 10 µM on Adenosine receptor A1.
Turning to `C[C@]12C=CC(=O)C=C1C(Cl)=C[C@@H]1[C@@H]2[C@@H](O)C[C@@]2(C)[C@H]1CC[C@]2(O)C(=O)CO` [CLOPREDNOL], the AC50 (in [1]; in [2]; at Cannabinoid receptor 1; at Histamine H2 receptor; on Adenosine receptor A2a; in assay [3]) was more than 30 µM throughout. Also, the AC50 in assay [4] was more than 30 µM; in assay [5] it was more than 30 µM; in assay [6], 8.7 µM; in assay [7], more than 30 µM; in assay [8], more than 30 µM; in assay [9] it was more than 30 µM. The AC50 (at D(3) dopamine receptor; in [10]; on Adenosine receptor A1) was more than 30 µM each time.
As to `C[C@]12CCC(=O)C=C1C=C[C@@H]1[C@@H]2CC[C@@]2(C)[C@H]1CC[C@@]21CCC(=O)O1` [CANRENONE], the AC50 (in [1]; in assay [2]; at Cannabinoid receptor 1; at Histamine H2 receptor; on Adenosine receptor A2a; in assay [3]) was more than 30 µM each time. The AC50 in assay [4], in [5], in assay [6], in assay [7], in assay [8] and in assay [9] was more than 30 µM in each case. The half-maximal activity concentration (AC50) (at D(3) dopamine receptor; in assay [10]; at Adenosine receptor A1) was more than 30 µM in each case.
For `CC(C)(C)NCC(O)COc1ccccc1C#N` (stereo not drawn) [BUNITROLOL], the half-maximal activity concentration (AC50) (in assay [2]; at Cannabinoid receptor 1; on Histamine H2 receptor; in assay [4]; in assay [5]; in assay [6]) was more than 30 µM each time. Also, the AC50 (in [7]; in assay [8]; at D(3) dopamine receptor; in assay [10]) was more than 30 µM in each case.
